Data from paper PMC9680484, “Synthesis, Biophysical Interaction of DNA/BSA, Equilibrium and Stopped-Flow Kinetic Studies, and Biological Evaluation of bis(2-Picolyl)amine-Based Nickel(II) Complex” (Biomimetics, 2022).
In brackets after ≈: the same amount, converted by molar mass. Several values for one entry are separate records, joined by “and”; a condition that tells them apart may be missing. Identical values can stand only once.

Columns and labels:
BSA [1] = target: T1, BSA (Bos taurus, UniProt P02769); assay: BSA fluorescence quenching titration (Stern-Volmer / Scatchard); format: binding, bovine; settings: for KSV: Stern-Volmer constant
Description: The excitation and emission wavelengths of BSA at 280 nm were monitored in protein binding studies using BSA ([…]) solution prepared in Tris-HCl buffer (pH 7.5), and the solution was stored in a dark place at 4 °C.
Interactions between the most common blood protein, serum albumin, and complexes have sparked a lot of interest recently because of their structural similarity to human serum albumin. To better understand the mechanism of interaction between BPA and its nickel(II) complex NiBPA with BSA, fluorescence quenching studies were carried out. BSA’s fluorescence is due to intrinsic protein characteristics, such as the presence of tryptophan and tyrosine residues. Variations in the emission spectra caused by protein conformational changes, subunit interaction, substrate binding, or denaturation are largely attributed to the tryptophan residue. As a result, BSA fluorescence behavior can provide valuable insight into protein structure, dynamics, and folding. Fluorescence titration experiments were performed at room temperature with BSA and different concentrations of BPA and NiBPA in the range 200–600 nm (λex. 280 nm). A slight red shift (40 percent, BPA; 65 percent, NiBPA; Figure 3) reduced the intensity of BSA fluorescence at 343 nm. The presence of the protein’s active site in a hydrophobic environment causes the redshift. […] The quenching mechanism can be set to either static or dynamic operation. Dynamic quenching occurs when the fluorophore and the quencher come into contact during the excited state’s transient existence, whereas static quenching is caused by the formation of a complex between the quencher and the fluorophore in the ground state. BSA (fluorophore) has a UV-vis absorption spectrum that can be used to investigate the type of quenching quickly and easily. […] The binding constants for BPA and NiBPA were calculated using Equation (1) and found to be 0.4 × 10^4 M^−1 and 0.82 × 10^4 M^−1, respectively (Table 1). […] Furthermore, the findings are in line with previous research on related compounds.
The Kq value is much higher than the 2 × 10^10 M^−1s^−1 maximum scatters collision quenching constant of quenchers with BSA (Kq = Ksv/τ0), where KSV is the Stern–Volmer constant and τ0 is the average lifetime of the BSA in the absence of the quencher (τ0 = 10 ns). This supports the idea of a static quenching mechanism. […] It is second order in [Q] and thus leads to upward curvy plots of I0/I versus [Q] at higher [Q].
The quenching constant (Kq) was calculated using the Stern–Volmer and Scatchard equation and plotted as I0/I vs. [Q] to better understand the quenching process (Figure 3). In addition, Scatchard Equation (2) was used to calculate the equilibrium binding constant:log[(I0 − I)/I] = log Kbin + n log [Q](2) where Kbin is the compound’s BSA binding constant and n is the number of binding sites. From the log (I0 − I)/I vs. log [Q] plot (Figure 5), the binding constant (Kbin) and the number of binding sites (n) have been calculated (Table 1). The estimated value of n (∼1) for BPA and NiBPA strongly supported the existence of a single binding site in BSA.

BSA [2] = target: T1, BSA; assay: BSA UV-vis absorption titration (Benesi-Hildebrand binding constant); parameters: species or system bovine
Description: Interactions between the most common blood protein, serum albumin, and complexes have sparked a lot of interest recently because of their structural similarity to human serum albumin. To better understand the mechanism of interaction between BPA and its nickel(II) complex NiBPA with BSA, fluorescence quenching studies were carried out. BSA’s fluorescence is due to intrinsic protein characteristics, such as the presence of tryptophan and tyrosine residues. Variations in the emission spectra caused by protein conformational changes, subunit interaction, substrate binding, or denaturation are largely attributed to the tryptophan residue. As a result, BSA fluorescence behavior can provide valuable insight into protein structure, dynamics, and folding. Fluorescence titration experiments were performed at room temperature with BSA and different concentrations of BPA and NiBPA in the range 200–600 nm (λex. 280 nm). A slight red shift (40 percent, BPA; 65 percent, NiBPA; Figure 3) reduced the intensity of BSA fluorescence at 343 nm. The presence of the protein’s active site in a hydrophobic environment causes the redshift. […] The quenching mechanism can be set to either static or dynamic operation. […] The binding constants for BPA and NiBPA were calculated using Equation (1) and found to be 0.4 × 10^4 M^−1 and 0.82 × 10^4 M^−1, respectively (Table 1). […]

ct-DNA [3] = assay: ct-DNA electronic absorption titration; format: binding; settings: phosphate buffer pH 7.2
Description: Electronic absorption measurements were performed with a constant concentration of ctDNA and increasing concentrations of BPA and NiBPA (Na-phosphate buffer solution, pH 7.2). […] Intrinsic fluorescence was measured with the ct-DNA solution at the excitation wavelength (ex, 330), and emission spectra were recorded at 550–700 nm after aliquot addition of BPA and NiBPA.
Absorption titration information was depicted in Figure 6 to understand the mode of interaction of complexes with ct-DNA. Increased addition of a solution of BPA to a solution of ct-DNA causes hyperchromic for the band at 264 nm with a blue shift of 5 nm (259 nm), as shown in the absorption titration spectrum (Figure 6). The band at 278 nm, on the other hand, was hypochromic with a small blue shift of 2 nm (276 nm). The presence of […] in the medium was indicated by the isosbestic point in the titration curve at 274 nm. […] The hydrogen bonds formed with the –OH and SH groups of BPA and NiBPA are caused by the presence of many accessible hydrogen binding sites in the DNA major and minor grooves. The binding constants for BPA (0.16 × 10^5 M^−1) and NiBPA (0.52 × 10^5 M^−1) are similar to those of well-known groove binding rather than classical intercalation, implying that NiBPA interacts with ct-DNA much more strongly than BPA under investigation.

BSA [4] = target: T1, BSA; assay: Stopped-flow kinetics of BSA binding; parameters: species or system bovine
Description: (§1) The kinetics of protein and DNA binding was measured using an Applied KinetAsyst SF-61DX2 stopped-flow instrument. At 25 °C, equal volumes of compounds against protein and DNA solutions were rapidly mixed in the stopped-flow instrument. The binding reactions were studied using a 10-fold excess of the ligand BPA and NiBPA under pseudo-first-order conditions. For each experimental condition, all recorded rate constants were taken into account, from which the mean values of at least three independent kinetic runs were calculated.
(§2) Because many medicines with lower cellular toxicity have a slow DNA dissociation rate, several factors, such as the strength of binding and the drug’s affinity for DNA, as well as the kinetic stability of DNA-drug adducts, may contribute to antitumor effectiveness. The stopped-flow technique was used to study in-vitro protein/DNA binding to BPA and propose a mechanism in order to obtain such information. The kinetic traces were recorded at 265 nm within 100 s (BPA) and 5 s (NiBPA), respectively, to capture the interaction process with BSA. […] In the case of ct-DNA interaction, the kinetic traces were recorded at 290 nm, and both BPA and NiBPA followed a similar pattern since kinetic traces for BPA and NiBPA were collected within 100 s, covering the entire interaction process. […] Over the concentration range of BPA and NiBPA, the study of kinetic traces performed under pseudo-first-order conditions may be fitted to two kinetic phases (Figure 7) evaluated using the following Equation (3):(3) A=a1e^−kobs1t1+a2e^−kobs2t2+A0
(§3) The interaction process involves at least two steps, and the stopped-flow records the two kinetic phases as a fast binding (rate constant kobs1) followed by a slow first-order isomerization process (rate constant kobs2). […] Both kon and koff were used to calculate the equilibrium association constants Kaff [kon/koff M^−1] and the equilibrium dissociation constants Kd [koff/kon M].
The difference between the free energy, G, of BSA molecules alone in the solution and when bound together is related to the equilibrium dissociation constant, Kd1. Equation (4) gives the binding free energy change Gbind. (4) ΔGbind=RT·ln(Kd)

ct-DNA [5] = assay: Stopped-flow kinetics of ct-DNA binding
Description: as §1, §2
as §3, with “M]. […]” for “M].”

[6] = test system: human liver cancer (HepG2) cell lines; assay: MTT cytotoxicity assay, liver cancer cells; format: cell-based; settings: Homo sapiens, HepG2, 24 h
Description: Methyl thiazolyl tetrazolium (MTT) colorimetry [47] was used to assess the cytotoxicity of BPA and one for human liver cancer (HepG2) cell lines. MTT can be converted into formazan by living cells with an active metabolism, but this ability is lost in dying cells. Therefore, in this study, the MTT assay was used to determine how many viable cells there were. Before the investigated compounds were added, cells were cultured in 96-well flat-bottomed microtiter plates at a density of 1 × 10^4 cells/well (100 l/well) for 70 to 80 percent confluent cultures, and the cultures were then incubated at 37 °C and 5 percent CO2 for 24 h. The compounds were used in a range of concentrations (31.2, 62.5, 125.0, 250.0, 500.0, and 1000.0 g/mL), and the cells were cultured for 24 h. Then, 10 µl of the 12 mM MTT stock solution (5 mg/mL MTT in sterile PBS) was added to each well at the conclusion of the incubation period. After that, the plate was incubated at 37 °C for 4 h. […] On an ELISA reader, the absorbance at 570 nm was read (StatFax-2100, Awareness Technology, Inc., USA). The percentage of cells inhibited was calculated using: % CellInhibition=100−T−T0/C−T0 where T is the optical density of the test sample, To is the optical density at time zero, and C is the optical density of the control.

[7] = MTT cytotoxicity assay, normal cells; format: cell-based; settings: Homo sapiens, WI-38, 24 h
S. aureus = assay: Antibacterial MIC/MBC, S. aureus; format: cell-based; settings: Gram-positive
Description: (§4) Several studies have shown that organic compound coordination with a metallic element results in significant changes in the biological activity of both the organic ligand and the metal. As a result, BPA and its nickel complex NiBPA were tested in vitro for antibacterial activity against Gram-positive (S. aureus and S epidermidis) and Gram-negative (P. mirabilis and E. coli) bacteria. Figure 10 depicts the antibacterial function of BPA and NiBPA as the diameter of the growth-inhibition region in millimeters. […] The MBC is identified by determining the lowest concentration of antibacterial agents that reduces the viability of the initial bacterial inoculum by 99.9%. The MIC or MBC strain was chosen based on the value agreed upon on two or more occasions. The antibiotic tobramycin (TOB) was used to control the situation. The inhibition zone, as well as the MIC and MBC data, leads to the following conclusions. […] This is explained by the metal ion’s polarity and cationic charge, as NiBPA has a cationic property with two positive charges. […] The interaction between Gram-negative bacteria and NiBPA was stronger than that of Gram-positive bacteria due to the higher negative charge on the cell surface, despite the presence of an outer membrane in Gram-negative bacteria (see Figure 11).

E. faecalis = assay: Antibacterial MIC/MBC, E. faecalis; format: cell-based; settings: Gram-positive
P. aeruginosa = assay: Antibacterial MIC/MBC, P. aeruginosa; format: cell-based; settings: Gram-negative
E. coli = assay: Antibacterial MIC/MBC, E. coli; format: cell-based; settings: Gram-negative
Description: as §4

SMILES: c1ccc(CNCc2ccccn2)nc1 [BPA, bis(2-picolyl)amine]
- Kbin (BSA [1]; BSA binding constant from Scatchard equation): 0.25 10^4 M^−1
- n (number of binding sites) (BSA [1]; Scatchard plot log (I0 − I)/I vs. log [Q]): 1.0
- KSV (BSA [1]): 2100 M⁻¹
- KSV (BSA [1]; BSA fluorescence, λex 280 nm, room temperature): 0.21 10^4 M^−1
- Kq (BSA [1]; quenching constant, Kq = Ksv/τ0, τ0 = 10 ns): 0.21 10^12 M^−1s^−1
- reduction of BSA fluorescence intensity at 343 nm (BSA [1]; λex 280 nm, room temperature): 40%
- Kd (BSA [2]): 0.25 mM
- binding constant (ct-DNA) (ct-DNA [3]): 16000 M⁻¹
- Ka1 (k1/k−1) (BSA [4]; BSA, 1st step, 25 °C): 73.5 M⁻¹
- Kd (BSA [4]; BSA, 1st step, 25 °C, read-out: Kd1 (k−1/k1)): 13.6 mM
- ΔG1 (BSA [4]; BSA, 1st step, ΔGbind = RT·ln(Kd)): -2.53 kcal/mol
- K2 (irreversible 2nd step) (BSA [4]; BSA, 2nd step): 0.82 M⁻¹
- K2 (2nd step) (BSA [4]; BSA, 2nd step, 25 °C, irreversible step for BPA): Irreversible step with K2 = 0.82 ± 0.08 M^−1s^−1
- k−2 (BSA [4]; BSA, 2nd step, irreversibility): ≈ 0
- k−1 (1st step, first-order dissociation constant) (BSA [4]; BSA, 25 °C): 0.17 ± 0.0 s⁻¹
- kon (BSA [4]; bovine, read-out: k1 (1st step, second-order association constant)): 12.5 ± 1.1 M⁻¹ s⁻¹
- Ka1 (k1/k−1) (ct-DNA [5]; 1st step, 25 °C): 40.0 M⁻¹ and 40 M⁻¹
- Kd (ct-DNA [5]; 1st step, 25 °C, read-out: Kd1 (k−1/k1)): 25.6 mM
- K2 (2nd step) (ct-DNA [5]; 2nd step, 25 °C): 0.29 ± 0.01 M⁻¹ s⁻¹
- Ka2 (k2/k−2) (ct-DNA [5]; 2nd step, 25 °C): 47.5 M⁻¹
- k−2 (ct-DNA [5]; 2nd step, 25 °C): 6.1 ± 0.3 10^−3s^−1
- k1 (1st step, second-order association constant) (ct-DNA [5]; 25 °C): 27.0 ± 2.5 M⁻¹ s⁻¹
- k−1 (1st step, first-order dissociation constant) (ct-DNA [5]; 25 °C): 0.69 ± 0.1 s⁻¹
- Ka (overall binding) (ct-DNA [5]; overall): 1899 M⁻¹
- IC50 [6]: 100 ± 1 µg/mL (≈ 502 µM)
- IC50 [7]: 237.2 ± 1.3 µg/mL (≈ 1190 µM)
- MBC (S. aureus): 0 µg/mL
- MBC (E. faecalis): 0 µg/mL
- MBC (P. aeruginosa): 0 µg/mL
- MBC (E. coli): 0 µg/mL
